In patent publication US9029366B2, “Substituted bicyclic alkoxy pyrazole analogs as allosteric modulators of mGluR5 receptors” (Vanderbilt University, priority 2012, dated 2015):
Where two headings read alike, the source gives them in different places.

Target: human mGluR5 (Homo sapiens, UniProt P41594)
Test: Cell-based functional Ca2+ mobilization assay (FDSS), potentiation of glutamate EC20 response, HEK293A cells transfected with human mGluR5a (H10H or H12H cell line)
Conditions: in presence of glutamate EC20, ** = compound is an antagonist; for Emax: HEK293-A, % of maximal glutamate response
Description: Human embryonic kidney (HEK) cells transfected with rat mGluR5 were plated in clear bottom assay plates for assay in a Functional Drug Screening System (FDSS). In the alternative assay, HEK cells transfected with human mGluR5 were plated for assay in the FDSS. In some cases the HEK cells transfected with human mGluR5 are the H10H cell line. Alternatively, the HEK cells transfected with human mGluR5 are the H12H cell line. […] The cells were loaded with a Ca^2+-sensitive fluorescent dye (e.g., Fluo-4), and the plates were washed and placed in the FDSS instrument. After establishment of a fluorescence baseline for about three seconds, the compounds of the present invention were added to the cells, and the response in cells was measured. Five minutes later, an mGluR5 agonist (e.g., glutamate, 3,5-dihydroxyphenylglycine, or quisqualate) was added to the cells, and the response of the cells was measured.
The above described assay can be operated in two modes. In the first mode, a range of concentrations of the present compounds were added to cells, followed by a single fixed concentration of agonist. If a compound acted as a potentiator, an EC50 value for potentiation and a maximum extent of potentiation by the compound at this concentration of agonist was determined by non-linear curve fitting. In the second mode, several fixed concentrations of the present compounds were added to various wells on a plate, followed by a range of concentrations of agonist for each concentration of present compound; the EC50 values for the agonist at each concentration of compound were determined by non-linear curve fitting. A decrease in the EC50 value of the agonist with increasing concentrations of the present compounds (a leftward shift of the agonist concentration-response curve) is an indication of the degree of mGluR5 potentiation at a given concentration of the present compound. An increase in the EC50 value of the agonist with increasing concentrations of the present compounds (a rightward shift of the agonist concentration-response curve) is an indication of the degree of mGluR5 antagonism at a given concentration of the present compound. The second mode also indicates whether the present compounds also affect the maximum response to mGluR5 to agonists.
Human mGluR5a cDNA in pCMV6-XL6 mammalian expression plasmid was purchased from OriGene Technologies, Inc. (catalogue number SC326357) and subcloned into pcDNA3.1(−). Human embryonic kidney (HEK)293A cells were then transfected with human mGluR5a pcDNA3.1(−) using LipofectAmine2000 (Invitrogen) and monoclones were selected and tested for functional response using a Ca^2+ mobilization assay. Monoclones were named for the species (“H” for human) plus the location on the plate (e.g. “10H”).
HEK cells transfected with the human mGluR5a receptor (H10H or H12H cell line) were plated at 15,000 cells/well in clear-bottomed poly-D-lysine-coated assay plates (BD Falcon) in glutamate-glutamine-free growth medium and incubated overnight at 37° C. and 5% CO2. Cell-lines used were either the H10H or H12H cell-lines expressing the human mGluR5 receptor. The following day, the growth medium was removed and the cells were washed with assay buffer containing 1× Hank's balanced salt solution (Invitrogen, Carlsbad, Calif.), 20 mM HEPES, 2.5 mM probenecid, pH 7.4 and left with 20 μL of this reagent. Following this step, the cells were loaded with calcium indicator dye, fluo-4 AM, to a final concentration of 2 μM and incubated for 40-45 min at 37° C. The dye solution was removed and replaced with assay buffer. Cell plates were held for 10-15 min at room temperature and were then loaded into the Functional Drug Screening System 6000 (FDSS 6000, Hamamatsu, Japan).
After establishment of a fluorescence baseline for about 3 seconds, the compounds of the present invention were added to the cells, and the response in cells was measured.

[1] = H10H cell line expressing recombinant human mGluR5, read-out: pEC50 (converted)
[2] = H10H cell line expressing recombinant human mGluR5

Sequence of human mGluR5 (P41594 21-1180 isoform P41594-2 limits assumed): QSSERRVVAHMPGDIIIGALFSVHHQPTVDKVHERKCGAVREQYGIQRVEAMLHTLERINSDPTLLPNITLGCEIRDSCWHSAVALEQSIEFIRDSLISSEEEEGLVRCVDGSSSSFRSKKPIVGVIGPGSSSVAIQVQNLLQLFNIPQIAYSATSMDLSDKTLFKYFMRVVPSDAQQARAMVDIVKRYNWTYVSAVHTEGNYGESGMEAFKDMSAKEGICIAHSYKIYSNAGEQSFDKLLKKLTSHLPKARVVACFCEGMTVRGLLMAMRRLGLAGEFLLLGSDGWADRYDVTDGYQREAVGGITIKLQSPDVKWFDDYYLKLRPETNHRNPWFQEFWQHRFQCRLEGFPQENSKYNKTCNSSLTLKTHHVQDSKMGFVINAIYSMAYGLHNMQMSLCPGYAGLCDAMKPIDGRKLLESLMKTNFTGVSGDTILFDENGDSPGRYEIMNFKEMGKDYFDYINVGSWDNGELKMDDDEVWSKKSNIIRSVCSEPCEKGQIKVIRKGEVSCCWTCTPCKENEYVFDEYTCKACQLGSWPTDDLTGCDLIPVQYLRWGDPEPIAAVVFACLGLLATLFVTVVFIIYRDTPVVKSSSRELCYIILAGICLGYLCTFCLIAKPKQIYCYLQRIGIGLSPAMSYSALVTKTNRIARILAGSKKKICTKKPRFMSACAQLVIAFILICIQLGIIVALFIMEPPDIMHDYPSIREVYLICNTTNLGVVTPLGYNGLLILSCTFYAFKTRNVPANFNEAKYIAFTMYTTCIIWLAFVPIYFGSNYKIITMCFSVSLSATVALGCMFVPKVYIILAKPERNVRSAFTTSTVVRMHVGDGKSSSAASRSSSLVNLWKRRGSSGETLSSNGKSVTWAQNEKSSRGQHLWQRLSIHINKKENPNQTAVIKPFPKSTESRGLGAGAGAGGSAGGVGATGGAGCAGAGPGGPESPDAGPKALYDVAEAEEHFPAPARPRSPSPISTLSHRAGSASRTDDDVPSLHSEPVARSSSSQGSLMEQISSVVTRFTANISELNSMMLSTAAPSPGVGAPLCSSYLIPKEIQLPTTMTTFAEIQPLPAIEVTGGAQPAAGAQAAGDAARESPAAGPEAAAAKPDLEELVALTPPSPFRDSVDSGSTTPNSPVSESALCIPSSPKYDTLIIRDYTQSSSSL

Row | SMILES | EC50 [1] [nM] | Emax [2] [%] | EC50 (pEC50, H10H cell line expressing recombinant human mGluR5) [nM]
1 | O=C(N1CCn2nc(OCc3ccccc3)cc2C1)C12C3C4C5C3C1C5C42 (stereo not shown) [Example B125] | 245 | 73 | –
2 | O=C(CC(F)(F)F)N1CCn2nc(OCc3ccccc3)cc2C1 [Example B69] | > 30200 | 16 | –
3 | Cn1c(Cl)ccc1C(=O)N1CCCn2nc(OCc3ccccc3)cc2C1 [Example B90] | 47.9 | 74 | –
4 | O=C(c1ccc(F)c(F)c1)N1CCn2nc(OCc3ccccc3)cc2C1 [Example B49] | 692 | 57 | –
5 | CC(C)(C)CCC(=O)N1CCn2nc(OCc3ccccc3)cc2C1 [Example B26] | 589 | 59 | –
6 | O=C(c1ccc(F)cc1)N1CCn2nc(OCc3ccccc3)cc2C1 [Example B1, 2-(benzyloxy)-5-[(4-fluorophenyl)carbonyl]-4,5,6,7-tetrahydropyrazolo[1,5-a]pyrazine] | 166 | 68 | –
7 | N#Cc1ccc(C(=O)N2CCn3nc(OCc4ccccc4)cc3C2)c(F)c1 [Example B46] | > 30200 | 20 | –
8 | O=C(c1ccco1)N1CCn2nc(OCc3ccccc3)cc2C1 [Example B55] | – | 55 | 324
9 | CC(C)OCC(=O)N1CCn2nc(OCc3ccccc3)cc2C1 [Example B23] | 3240 | 34 | –
10 | Cn1cc(C(=O)N2CCn3nc(OCc4cccc(F)c4)cc3C2)cc1Cl [Example B93] | 347 | 65 | –
11 | O=C(c1ccc(F)cc1)N1CCn2nc(OCc3ncccn3)cc2C1 [Example B117] | > 30200 | 30 | –
12 | O=C(C1CC1c1ccccc1)N1CCn2nc(OCc3ccccc3)cc2C1 (stereo not shown) [Example B71] | 2340 | 30 | –
13 | C[C@@H]1Cn2nc(OCc3ccccc3)cc2CN1C(=O)c1ccc(F)cc1 [Example B7] | 813 | 62 | –
14 | COc1ccc(C(=O)N2CCn3nc(OCc4ccccc4)cc3C2)cc1F [Example B45] | > 30200 | 19 | –
15 | CCOCC(=O)N1CCn2nc(OCc3ccccc3)cc2C1 [Example B27] | > 30200 | 17 | –
16 | CC(C)(C)OCC(=O)N1CCn2nc(OCc3ccccc3)cc2C1 [Example B21] | 631 | 53 | –
17 | Cn1ccc(C(=O)N2CCn3nc(OCc4cccc(F)c4)cc3C2)c1 [Example B92] | 537 | 52 | –
18 | O=C(c1ccc(F)cc1)N1CCn2nc(OCc3cc[n+]([O-])cc3)cc2C1 [Example B135] | ≥ 10000 | 38 | –
19 | O=C(c1ccc(F)cc1)N1CCn2nc(OCc3ccnc(F)c3)cc2C1 [Example B116] | ≥ 10000 | 51 | –
20 | O=C(c1ccc(F)cc1)N1CCn2nc(OCc3ccnc(Cl)c3)cc2C1 [Example B126] | 178 | 35 | –
21 | Cn1ccc(COc2cc3n(n2)CCN(C(=O)c2ccc(F)cc2)C3)cc1=O [Example B128] | > 30200 | 28 | –
22 | O=C(c1ccsc1)N1CCn2nc(OCc3ccccc3)cc2C1 [Example B60] | 275 | 61 | –
23 | O=C(c1ccc(Cl)c(Cl)c1)N1CCn2nc(OCc3ccccc3)cc2C1 [Example B42] | 1230 | 39 | –
24 | O=C(c1ccc[nH]1)N1CCn2nc(OCc3ccccc3)cc2C1 [Example B57] | 1230 | 39 | –
25 | O=C(c1ccc(F)cc1)N1CCn2nc(OCc3ccc4nccn4c3)cc2C1 [Example B118] | > 30200 | 25 | –
26 | O=C(c1ccc(Cl)cc1)N1CCn2nc(OCc3ccccc3)cc2C1 [Example B40] | 269 | 46 | –
27 | Cn1cc(C(=O)N2CCn3nc(OCc4cccc(F)c4)cc3C2)c2ccccc21 [Example B79] | 1320 | 32 | –
28 | O=C(c1ccc(F)cc1)N1CCn2nc(OCc3ccnc(C(F)(F)F)c3)cc2C1 [Example B123] | ≥ 10000 | 30 | –
29 | CC(=O)N1CCn2nc(OCc3ccccc3)cc2C1 [Example B108] | > 30200 | 28 | –
